The test system of one data set is chitin synthases. Nature of the data set: Inhibitory activity against the chitin synthases (summary statements). Format: biochemical. The text has this:
The inhibitory activities against the chitin synthase 1 of Candida albicans chs2 Δ chs 3 Δ (abbreviated as ‘enzyme 1’) and the chitin synthase 2 of Saccharomyces cerevisiae ECY38-38A(pAS6)(abbreviated as ‘enzyme 2’) was examined for compound Nos. 1 to 70 compound and polyoxin D, a positive control compound.
The inhibitory activity against the chitin synthase 1 prepared from Candida albicans and the chitin synthase 2 prepared from Saccharomyces cerevisiae were examined as follows. A reaction mixture containing 32 mM Tris-HCl (pH 7.5), 2 mM cobalt acetate, 1.1 mM UDP-[U-^14C]-N-acetyl-d-glucosamine (GlcNAc) (400,000 cpm/μmol), 2 μL of trypsin (0.75 mg/mL), 20 μL of each crude enzyme and 14 μL of each test sample was kept at 30° C. for 15 minutes to activate the enzyme. Then, 2 μL of trypsin inhibitor (1.5 mg/mL) was added and the mixture was kept in an ice bath for 10 minutes to deactivate trypsin. 2 μL of 0.8 M N-acetyl-d-glucosamine was added to a total volume of 50 μL and reaction was performed at 30° C. for 90 minutes. The reaction was stopped using 1 mL of 10% TCA solution and the reaction solution was filtered with a GF/C filter and dried at room temperature. After adding 3 mL of a scintillation cocktail solution, the amount of isotopes was measured using a liquid scintillation counter. Percentage inhibition against each enzyme was calculated by the following Equation 1.

The nature of the next data set: Acute toxicity in mice. Format: in vivo, ICR mice. The conditions noted are these: for Acute toxicity LD50: ICR mouse, male. Here is the method:
Each compound was suspended in 1% carboxymethylcellulose (CMC), and orally and abdominally administered to 6-week-old male ICR mice. […] Then, an autopsy was performed on the mice.

Data set [1] relates to Aspergillus flavus ATCC 64025. Nature of the data set: In vitro antifungal activity (MIC), NCCLS method. Format: cell-based. The following applies: 48 hours. Put shortly:
(§1)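 Broth microdilution per NCCLS: two-fold serial dilutions of test compound inoculated with fungal suspension at a final 5×10^2 to 2.5×10^3 cell/mL. Strains other than Cryptococcus neoformans were incubated 48 hours before MIC reading.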

Data set [2] has as its system Aspergillus terreus ATCC 46941. Nature of the data set: In vitro antifungal activity (MIC), NCCLS method. Format: cell-based. The conditions noted are these: 48 hours. Put shortly: as §1
The test system of data set [3] is Mucor ramosissimus ATCC 90286. Nature of the data set: In vitro antifungal activity (MIC), NCCLS method. The conditions noted are these: 48 hours. Format: cell-based. In short, it runs like this:
as §1

In data set [4] the test system is Aspergillus fumigatus ATCC 16424. Nature of the data set: In vitro antifungal activity (MIC), NCCLS method. Format: cell-based. The following applies: 48 hours. Put shortly: as §1
In data set [5] the test system is Candida tropicalis ATCC 13803. The experiment in a line: In vitro antifungal activity (MIC), NCCLS method. Format: cell-based. The conditions noted are these: 48 hours. In short, it runs like this: as §1
For data set [6], the system named is Candida albicans A207 (clinical isolate). The experiment in a line: In vitro antifungal activity (MIC), NCCLS method. Format: cell-based. The following applies: 48 hours. Put shortly: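 Broth MIC by NCCLS two-fold dilution, final inoculum 5×10^2 to 2.5×10^3 cell/mL. Candida and Mucor strains incubated 48 hours.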
Data set [7] deals with Cryptococcus neoformans ATCC 36556. The experiment in a line: In vitro antifungal activity (MIC), NCCLS method. Format: cell-based. The following applies: RPMI 1640 medium, 72 hours. In short, it runs like this:
as §1

In another data set the test system is Candida krusei ATCC 6258. Nature of the data set: In vitro antifungal activity (MIC), NCCLS method. Format: cell-based. The following applies: 48 hours. Put shortly:
as §1

Data set [8] concerns Candida parapsilosis ATCC 34136. Nature of the data set: In vitro antifungal activity (MIC), NCCLS method. The following applies: Candida parapsilosis ATCC 34136; 48 hours. Format: cell-based. In short, it runs like this:
as §1

For data set [9], the system named is Candida albicans ATCC 10231. Nature of the data set: In vitro antifungal activity (MIC), NCCLS method. Format: cell-based. The following applies: 48 hours. In short, it runs like this:
as §1

Data set [10] concerns Candida glabrata ATCC 48435. Nature of the data set: In vitro antifungal activity (MIC), NCCLS method. Format: cell-based. The following applies: Candida glabrata ATCC 48435; 48 hours. Put shortly: as §1
The subject of data set [11] is Candida lusitaniae ATCC 42720. Nature of the data set: In vitro antifungal activity (MIC), NCCLS method. Format: cell-based. The conditions noted are these: 48 hours. In short, it runs like this: as §1
The next data set has as its system human pathogenic fungi. Nature of the data set: Antifungal activity against human pathogenic fungi (summary statements). Format: cell-based. The source says:
Candida albicans ATCC 10231, Candida lusitaniae ATCC 42720, Candida krusei ATCC 6258, Candida tropicalis ATCC 13803, Candida glabrata ATCC 48435, Candida parapsilosis ATCC 34136, Cryptococcus neoformans ATCC 36556, Aspergillus fumigatus ATCC 16424, Aspergillus flavus ATCC 64025, Aspergillus terreus ATCC 46941 and Mucor ramosissimus ATCC 90286 strains for the MIC (minimum inhibitory concentration) measurement were obtained from ATCC (American Type Culture Collection) in the U.S. The Candida albicans A207(clinical isolate) strain was used by isolating it from the patients.
The determination of MIC was performed according to the NCCLS (National Committee for Clinical Laboratory Standard) method. Each test sample solution was diluted two-fold and inoculated with a fungal suspension to reach a final inoculum size of 5×10^2 to 2.5×10^3 cell/mL. The Cryptococcus neoformans strain was cultured in the RPMI 1640 medium for 72 hours. Other strains were cultured for 48 hours.

Data set [12] concerns the target T1, chitin synthase 1 of Candida albicans chs2 Δ chs 3 Δ (Candida albicans, UniProt P23316).
T1 construct: Crude enzyme was prepared using the Candida albicans chs2 Δ chs 3 Δ mutant; endogenous in cells; host or cells: Candida albicans chs2Δ/chs2Δ chs3Δ/chs3Δ mutant; 130,000 x g membrane pellet
Nature of the data set: In vitro enzyme assay for chitin synthase 1 of Candida albicans (enzyme 1). Format: biochemical. The conditions noted are these: relative to polyoxin D (50% inhibitory activity = value 5). In short, it runs like this:
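Crude membrane enzyme from the C. albicans chs2Δ chs3Δ strain was trypsin-activated for 15 min at 30 °C. Reaction: 32 mM Tris-HCl pH 7.5, 2 mM cobalt acetate, 1.1 mM UDP-[14C]GlcNAc, 90 min at 30 °C; TCA-insoluble radioactivity counted. Scored 1–8 by relative polyoxin D concentration (5 = equal).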

The target in data set [13] is T2, chitin synthase 2 of Saccharomyces cerevisiae ECY38-38A(pAS6) (Saccharomyces cerevisiae, UniProt P14180).
T2 construct: made in house; host or cells: Saccharomyces cerevisiae ECY38-38A (chs1-23 chs2::LEU2 cal1/csd2) carrying plasmid pAS6, grown in galactose medium; 130,000 x g membrane pellet
Nature of the data set: In vitro enzyme assay for chitin synthase 2 of Saccharomyces cerevisiae (enzyme 2). Format: biochemical. The conditions noted are these: relative to polyoxin D (50% inhibitory activity = value 5). Put shortly:
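Crude membrane chitin synthase 2 came from S. cerevisiae ECY38-38A(pAS6), expressing only CHS2, and was trypsin-activated (15 min, 30 °C) then trypsin-inhibited. The reaction ran in 32 mM Tris-HCl pH 7.5, 2 mM cobalt acetate, 1.1 mM UDP-[14C]-GlcNAc, 90 min at 30 °C. TCA-precipitated product was counted by scintillation; scores 1–8 reflect concentration relative to polyoxin D's 50% inhibition (score 5).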

Three substances from patent US7915276B2, “Berberrubine derivatives having antifungal activities” (priority 2006, dated 2011) can be followed below.

T2 sequence (P14180 whole entry): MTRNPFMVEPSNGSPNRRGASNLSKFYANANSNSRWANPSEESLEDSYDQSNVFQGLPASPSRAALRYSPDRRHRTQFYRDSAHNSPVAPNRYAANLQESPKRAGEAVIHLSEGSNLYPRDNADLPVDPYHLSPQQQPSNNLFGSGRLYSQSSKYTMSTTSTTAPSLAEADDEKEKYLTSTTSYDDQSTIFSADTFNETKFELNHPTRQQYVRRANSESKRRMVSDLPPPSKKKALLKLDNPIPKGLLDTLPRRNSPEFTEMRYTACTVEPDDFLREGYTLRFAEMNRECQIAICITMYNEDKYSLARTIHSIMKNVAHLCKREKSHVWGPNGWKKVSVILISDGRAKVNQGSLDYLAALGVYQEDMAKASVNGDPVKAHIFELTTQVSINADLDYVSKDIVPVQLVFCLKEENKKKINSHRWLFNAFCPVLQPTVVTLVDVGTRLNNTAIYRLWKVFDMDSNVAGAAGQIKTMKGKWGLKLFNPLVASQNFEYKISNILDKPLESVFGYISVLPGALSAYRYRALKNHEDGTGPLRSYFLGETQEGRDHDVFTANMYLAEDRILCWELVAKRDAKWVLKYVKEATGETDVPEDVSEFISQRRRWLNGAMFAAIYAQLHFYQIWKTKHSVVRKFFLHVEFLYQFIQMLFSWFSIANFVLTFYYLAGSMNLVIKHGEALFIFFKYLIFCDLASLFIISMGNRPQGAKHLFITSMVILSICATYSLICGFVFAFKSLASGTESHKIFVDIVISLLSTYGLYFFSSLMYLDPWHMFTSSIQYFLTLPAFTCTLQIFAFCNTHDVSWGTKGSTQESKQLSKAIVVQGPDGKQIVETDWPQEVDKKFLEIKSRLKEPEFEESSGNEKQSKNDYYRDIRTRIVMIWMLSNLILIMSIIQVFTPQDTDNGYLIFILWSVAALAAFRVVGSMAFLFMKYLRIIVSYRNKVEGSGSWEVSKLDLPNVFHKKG
T1 sequence (P23316 whole entry, stated change not applied): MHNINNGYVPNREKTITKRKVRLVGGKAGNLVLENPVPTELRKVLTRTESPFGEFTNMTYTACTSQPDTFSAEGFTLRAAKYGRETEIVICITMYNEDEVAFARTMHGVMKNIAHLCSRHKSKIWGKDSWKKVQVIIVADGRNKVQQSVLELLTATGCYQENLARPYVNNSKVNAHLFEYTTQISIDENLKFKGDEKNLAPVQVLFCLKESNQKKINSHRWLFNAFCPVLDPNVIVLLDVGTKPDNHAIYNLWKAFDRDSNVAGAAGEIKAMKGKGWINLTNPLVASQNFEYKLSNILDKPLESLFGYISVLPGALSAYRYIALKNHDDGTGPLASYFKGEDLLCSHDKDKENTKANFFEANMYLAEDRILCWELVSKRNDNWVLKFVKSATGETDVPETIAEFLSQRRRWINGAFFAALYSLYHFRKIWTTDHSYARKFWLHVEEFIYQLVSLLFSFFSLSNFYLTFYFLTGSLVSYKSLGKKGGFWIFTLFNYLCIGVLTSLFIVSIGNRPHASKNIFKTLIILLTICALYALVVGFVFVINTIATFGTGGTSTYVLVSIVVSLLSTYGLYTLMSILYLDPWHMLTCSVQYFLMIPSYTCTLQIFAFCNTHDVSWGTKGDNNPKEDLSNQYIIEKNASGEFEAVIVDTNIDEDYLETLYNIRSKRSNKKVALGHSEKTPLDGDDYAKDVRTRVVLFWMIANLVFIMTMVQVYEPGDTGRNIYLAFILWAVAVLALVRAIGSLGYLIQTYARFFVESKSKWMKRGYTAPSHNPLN

For the substance “13-(4-Isopropylbenzyl)-9-O-butylberberrubine chloride [Compound No. 50]”, the “inhibitory activities against the chitin synthases (in words)” value (shortened to “inhibitory activities”) with chitin synthases is given as “exceptionally superior inhibitory activities”. Further, the “Acute toxicity LD50” value in “Acute toxicity in mice” (abdominal) is on record as over 15 mg/kg; in “Acute toxicity in mice” (oral), over 1000 mg/kg. For the same substance, the “MIC (minimum inhibitory concentration)” value in data set [1] was found to be 8 µg/mL; in data set [2], 8 µg/mL; in [3], 4 µg/mL; in data set [4] it was 2 µg/mL; in data set [5], 0.25 µg/mL; in [6] it was 0.5 µg/mL. The “MIC (minimum inhibitory concentration)” value was 1 µg/mL in data set [7]; 1 µg/mL against Candida krusei ATCC 6258; 4 µg/mL in data set [8]; 0.5 µg/mL in data set [9]; 4 µg/mL in data set [10]; 0.5 µg/mL in [11]. Further, the “antifungal activities compared with amphotericin B (in words)” value in the data set with human pathogenic fungi is on record as “comparable to that of amphotericin B”. Further, the “Relative activity Enzyme 1” value in data set [12] is 4 (Compounds having the inhibitory activity at 2-fold, 4-fold, 8-fold and 16-fold higher concentrations than that of polyoxin D were given the values of 4, 3, 2 and 1, respectively). The “Relative activity Enzyme 2” value in [13] was 7 (compounds having the inhibitory activity at ½, ¼ and ⅛ lower concentrations than that of polyoxin D were given the values of 6, 7 and 8, respectively).
In the case of “13-(4-tert-Butylbenzyl)-9-O-butylberberrubine iodide [Compound No. 8]”, the “inhibitory activities” value with chitin synthases was “exceptionally superior inhibitory activities”. The “Acute toxicity LD50” value in “Acute toxicity in mice” (abdominal) is reported as over 15 mg/kg; in “Acute toxicity in mice” (oral) it was over 1000 mg/kg. In “Acute toxicity in mice” (mice, oral administration dosage of 1,000 mg/kg), the deaths entry was “no case of death observed”. For the same substance, the Autopsy findings result in the data set “Acute toxicity in mice” (mouse, in vivo) was “Nothing”; in “Acute toxicity in mice” (mouse, in vivo, po), “Nothing”. Further, the “general symptoms and body weight” value in the data set “Acute toxicity in mice” (mouse, in vivo) was “no abnormalities”. Moreover, the “MIC (minimum inhibitory concentration)” value in [1] stood at 8 µg/mL; in data set [2], 8 µg/mL; in [3], 4 µg/mL; in [4] it was 2 µg/mL; in data set [5] it was 0.25 µg/mL; in data set [6], 0.5 µg/mL. Also, the “MIC (minimum inhibitory concentration)” value was 1 µg/mL in data set [7]; 2 µg/mL in the data set on Candida krusei ATCC 6258; 4 µg/mL in data set [8]; 0.5 µg/mL in data set [9]; 4 µg/mL in [10]; 1 µg/mL in [11]. Besides, the “antifungal activities compared with amphotericin B (in words)” value in the data set on human pathogenic fungi is on record as “comparable to that of amphotericin B”. Besides, in data set [12], the “Relative activity Enzyme 1” value was 4 (Compounds having the inhibitory activity at 2-fold, 4-fold, 8-fold and 16-fold higher concentrations than that of polyoxin D were given the values of 4, 3, 2 and 1, respectively). The “Relative activity Enzyme 2” value in data set [13] is 7 (compounds having the inhibitory activity at ½, ¼ and ⅛ lower concentrations than that of polyoxin D were given the values of 6, 7 and 8, respectively).
On to “13-(4-tert-Butylbenzyl)-9-O-propylberberrubine iodide [Compound No. 7]”, for which, in the data set with chitin synthases, the “inhibitory activities” value is recorded as “exceptionally superior inhibitory activities”. Moreover, the “MIC (minimum inhibitory concentration)” value in data set [1] is 8 µg/mL; in data set [2], 8 µg/mL; in data set [3] it was 4 µg/mL; in data set [4] it was 4 µg/mL; in data set [5], 0.5 µg/mL; in [6] it was 1 µg/mL. The “MIC (minimum inhibitory concentration)” value worked out at 2 µg/mL in data set [7]; 2 µg/mL in the data set on Candida krusei ATCC 6258; 4 µg/mL in data set [8]; 1 µg/mL in [9]; 4 µg/mL in data set [10]; 2 µg/mL in [11]. The “antifungal activities compared with amphotericin B (in words)” value in the data set with human pathogenic fungi is given as “comparable to that of amphotericin B”. For the same substance, in data set [12], the “Relative activity Enzyme 1” value was 4 (Compounds having the inhibitory activity at 2-fold, 4-fold, 8-fold and 16-fold higher concentrations than that of polyoxin D were given the values of 4, 3, 2 and 1, respectively). Besides, the “Relative activity Enzyme 2” value in data set [13] is 7 (compounds having the inhibitory activity at ½, ¼ and ⅛ lower concentrations than that of polyoxin D were given the values of 6, 7 and 8, respectively).
